Source: patent publication US20040002510A1, “Crystalline micronisate, process for the manufacture thereof and use thereof for the preparation of a medicament” (Boehringer Ingelheim Pharma GmbH & Co. KG, priority 2002, published 2004)

Columns and labels:
[1] = Determining the heat of solution (enthalpy of solution) by solution calorimeter; assay type: physicochemical; settings: chemically pure water, 25° C., mass corrected by water content
Procedure: D.4) Determining the Heat of Solution (Enthalpy of Solution) Ec:
The solution enthalpy is determined using a solution calorimeter 2225 Precision Solution Calorimeter made by Messrs. Thermometric. The heat of solution is calculated by means of the change in temperature occurring (as a result of the dissolving process) and the system-related change in temperature calculated from the base line. Before and after the ampoule is broken, electrical calibration is carried out with an integrated heating resistor of a precisely known power. A known heat output is delivered to the system over a set period and the jump in temperature is determined.
The electrical calibration takes place during the measurement, once before and once after the breakage of the ampoule. The calibration after the breakage of the ampoule is used for the evaluation.
As the mass of the tiotropium bromide micronisate weighed out has to be corrected by the water content of the material, the unsealed ampoules together with about 1 g of the test substance are left to stand open for at least 4 hours. After this equilibration time the ampoules are sealed with the silicon stoppers and the water content of the bulk sample is determined by Karl-Fischer titration. […]
The corrected mass mc determined by this calculation is used as the input value (=weight) to calculate the solution enthalpy measured.

[2] = Determining particle size by laser diffraction (Fraunhofer diffraction); assay type: physicochemical; settings: air dispersal
From the text: The micronisate of tiotropium bromide obtainable by the above method has a characteristic particle size X50 of between 1.0 μm and 3.5 μm, preferably between 1.1 μm and 3.3 μm, most preferably between 1.2 μm and 3.0 μm and Q(5.8) of more than 60%, preferably more than 70%, most preferably more than 80%. The characteristic value X50 denotes the median value of the particle size below which 50% of the particles fall, with regard to the distribution by volume of the individual particles. The characteristic value Q(5.8) corresponds to the quantity of particles below 5.8 μm , based on the volume distribution of the particles. The particle sizes were determined within the scope of the present invention by laser diffraction (Fraunhofer diffraction). More detailed information on this subject can be found in the experimental descriptions of the invention.
D.2) Determining Particle Size by Laser Diffraction (Fraunhofer Diffraction)
To determine the particle size the powder is fed into a laser diffraction spectrometer by means of a dispersing unit.

SMILES: C[N+]1(C)C2C[C@H](OC(=O)C(O)(c3cccs3)c3cccs3)C[C@H]1[C@H]1OC21 (stereo partly drawn) [tiotropium bromide micronisate, (1α,2β,4β,5α,7β)-7-[(hydroxydi-2-thienylacetyl)oxy]-9,9-dimethyl-3-oxa-9-azoniatricyclo[3.3.1.0^2,4]nonane-bromide]
- specific enthalpy of solution (heat of solution) [1]: more than 65 Ws/g
- Q(5.8) (quantity of particles below 5.8 μm, based on the volume distribution) [2]: more than 60%
